Laboratory results: US9540405B2, “Diaminophenothiazinium derivatives for labelling biomolecules, method and substrate for labelling oligonucleotides, and oligonucleotides obtained” (UNIVERSITE CLAUDE BERNARD LYON I, priority 2012, dated 2017)

Experiment: Stability study in basic medium (0.05M K2CO3 in methanol)
Format: physicochemical

For CCCCN(CCCC)c1ccc2nc3ccc(N(CCO)CCO)cc3[s+]c2c1.[I-] [Ra═Rb═butyl and Rc═Rd═ethanol, (dibutylamino)(diethanolamino)phenothiazinium iodide], the “Stability after treatment in 0.05M K2CO3/MeOH” value (shortened to “Stability … in 0.05M K2CO3/MeOH”) (4 h) was 73% and the “Stability … in 0.05M K2CO3/MeOH” value (17 h) was 25%.
With CCCCN(CCCCO)c1ccc2nc3ccc(N(CCCC)CCCCO)cc3[s+]c2c1.[I-] [Ra═Rc═butyl and Rb═Rd═butanol, bis(butylbutanolamino)phenothiazinium iodide] the “Stability … in 0.05M K2CO3/MeOH” value (4 h) was 91% and the “Stability … in 0.05M K2CO3/MeOH” value (17 h) was 66%.
